Measured values from patent US8815852B2, “Carbamoyloxy arylalkan arylpiperazine analgesics” (SK Biopharmaceuticals Co., Ltd., priority 2007, dated 2014).

What was measured:
male ICR mouse [1] = experiment: Acetic acid-induced writhing test in mouse; format: in vivo; conditions: Mus musculus; for ED50: unit not given (method doses in mg/kg), read-out: AA Writhing: ED50; for inhibition in vivo at 10 mg/kg: 1 h, at 10 po (method: 10 mg/kg oral, 1 hour before acetic acid), read-out: AA Writhing: Suppression ratio of Pain response
Summary of the method: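 Male ICR mice (30 to 35 g) dosed orally at 10 mg/kg, then given 0.8% acetic acid i.p. 1 h later. Writhes counted for 10 min and expressed as % suppression against vehicle. ED50 derived by linear regression over at least three doses.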

5-HT1A receptor = 5-HT1A receptor (Rattus norvegicus (Rat), UniProt P19327); experiment: Binding to 5-HT1A receptor ([3H]-8-OH-DPAT, rat cortical membranes); set-up: species or system Sprague-Dawley (SD) rats; conditions: for IC50: 2 nM [3H]-8-OH-DPAT, read-out: 5-HT1A: IC50 (Concentration required to be 50% suppressed); for inhibition at 1 µM: 1 h, read-out: 5-HT1A: Suppression
Sequence of 5-HT1A receptor (P19327 whole entry): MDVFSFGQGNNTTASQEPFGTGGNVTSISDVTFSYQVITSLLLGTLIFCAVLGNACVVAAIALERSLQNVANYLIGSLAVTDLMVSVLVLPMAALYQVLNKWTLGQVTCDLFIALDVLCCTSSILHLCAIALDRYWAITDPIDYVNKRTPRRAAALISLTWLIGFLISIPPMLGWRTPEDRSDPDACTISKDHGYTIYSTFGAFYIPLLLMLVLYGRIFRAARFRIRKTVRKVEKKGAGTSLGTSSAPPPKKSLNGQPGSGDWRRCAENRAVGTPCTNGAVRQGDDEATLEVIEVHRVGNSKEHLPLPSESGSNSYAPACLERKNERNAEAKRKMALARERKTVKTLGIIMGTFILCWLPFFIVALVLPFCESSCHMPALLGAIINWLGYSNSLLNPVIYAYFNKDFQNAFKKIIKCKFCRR
Description: Binding to 5-HT1A Receptor
6-week-old Sprague-Dawley (SD) rats were anesthetized in an ether container for 5 minutes, brains were separated from rats, and cortical regions were then separated from the brains of the rats. The cortical regions of the rats were put into a Tris-HCl buffer solution (50 mM, pH 7.4) and homogenized, and the homogenate was centrifuged twice at 4? at a rotary speed of 50,000 g to obtain a precipitate (membrane protein). The precipitate was put into a buffer solution, and homogenized, which was used later as a protein source. 2 nM [3H]-8-OH-DPAT was used as a radioactive isotope, and 10 uM serotonin was used to remove non-specific bindings. 25 ul of the compound, 100 ul of an aqueous radioactive isotope solution, and 100 ul of the protein source were put together, and kept at 25° C. for 1 hour. The resulting mixture was filtered with a membrane filter in a 96-well harvester when the 96-well plate reaction was completed. The competitivity of the compound to [3H]-8-OH-DPAT was determined by taking the membrane filter and measuring the radioactivity of the membrane filter in a scintillation counter, and an IC50 value was determined by measuring the increasing concentration of the compound. The specific reaction of the compound accounted for 90% or more. The general experiments were carried out according to the method by Middlemiss et al. (1984, Eur. J. Pharmacol.).

5-HT2A receptor = 5-HT2A receptor (Rattus norvegicus (Rat), UniProt P14842); experiment: Binding to 5-HT2A receptor ([3H]-Ketanserin, rat cortical membranes); set-up: species or system Sprague-Dawley (SD) rats; conditions: for IC50: 0.5 nM [3H]-Ketanserin, read-out: 5-HT2A: IC50 (Concentration required to be 50% suppressed); for inhibition at 1 µM: 1 h, read-out: 5-HT2A: Suppression
Sequence of 5-HT2A receptor (P14842 whole entry): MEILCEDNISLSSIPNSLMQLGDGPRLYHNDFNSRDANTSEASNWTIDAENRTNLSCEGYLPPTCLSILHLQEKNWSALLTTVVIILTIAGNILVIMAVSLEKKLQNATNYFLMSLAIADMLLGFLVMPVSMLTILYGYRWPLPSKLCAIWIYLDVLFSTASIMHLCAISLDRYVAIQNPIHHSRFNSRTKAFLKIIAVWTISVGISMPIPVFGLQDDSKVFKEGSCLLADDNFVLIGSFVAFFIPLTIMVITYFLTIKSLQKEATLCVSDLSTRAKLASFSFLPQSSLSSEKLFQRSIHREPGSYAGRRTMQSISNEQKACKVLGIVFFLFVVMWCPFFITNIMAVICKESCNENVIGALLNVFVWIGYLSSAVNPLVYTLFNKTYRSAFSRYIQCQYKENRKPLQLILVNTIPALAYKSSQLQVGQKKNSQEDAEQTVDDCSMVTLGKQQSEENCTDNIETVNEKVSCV
Description: Binding to 5-HT2A Receptor
6-week-old Sprague-Dawley (SD) rats were anesthetized in an ether container for 5 minutes, brains were separated from rats, and cortical regions were then separated from the brains of the rats. The cortical regions of the rats were put into a Tris-HCl buffer solution (50 mM, pH 7.7) and homogenized, and the homogenate was centrifuged twice at 4° C. at a rotary speed of 50,000 g to obtain a precipitate (membrane protein). The precipitate was put into a buffer solution, and homogenized, which was used later as a protein source. 0.5 nM [3H]-Ketanserin was used as a radioactive isotope, and 10 uM serotonin was used to remove non-specific bindings. 25 ul of the compound, 100 ul of an aqueous radioactive isotope solution, and 100 ul of the protein source were put together, and kept at 25° C. for 1 hour. The resulting mixture was filtered with a membrane filter in a 96-well harvester when the 96-well plate reaction was completed. The competitivity of the compound to [3H]-Ketanserin was determined by taking the membrane filter and measuring the radioactivity in a scintillation counter, and an IC50 value was determined by measuring the increasing concentration of the compound. The specific reaction of the compound accounted for 90% or more. The general experiments were carried out according to the method by Leysen et al. (1982, Eur. J. Pharmacol).

male ICR mouse [2] = experiment: Formalin test - late phase in mouse; format: in vivo; conditions: po, unit inferred
Description: 3. Formalin Test—Late Phase in Mouse
A formalin test is another model for measuring an analgesic effect of drugs. […] These pain behaviors have a biphasic pattern, and therefore they are divided into an early-phase behavior within […] after the formalin administration; and a late-phase behavior up to 10 to 60 minutes. The medicinal effect observed in the formalin test-late phase means an analgesic effect of the test material in the inflammatory pain model, and also becomes a measure that may predict the medicinal effects in the neuropathic pain model (Vissers K et. al, 2003). A test material was orally administered to a male ICR mouse weighing 30 to 35 g. After 1 hour of the oral administration, 20 μl of a 2.5% formalin solution was subcutaneously injected into the planta surface of a mouse's hindlimb to induce pain. […] The analgesic effect of the test material is represented by the ‘suppression ratio of pain response’ {[(Pain response time of Vehicle-administered group−Pain response time of Test material-administered group)/(Pain response time of Vehicle-administered group)]×100%}, or ‘50% of Effective amount (ED50; an amount of a test material that is required to suppress 50% of pain behaviors) of Test material’. The ED50 (median effective dose) was determined by calculating the suppression ratio of pain response in at least three doses of test materials and subjecting to the linear regression.

male ICR mouse [3] = experiment: Formalin test - late phase in mouse; format: in vivo; conditions: ip, unit inferred

Row | Structure (SMILES) | ED50 (male ICR mouse [1]; po) [mg/kg] | IC50 (5-HT1A receptor) [nM] | IC50 (5-HT2A receptor) [nM] | ED50 (male ICR mouse [2]) [mg/kg] | inhibition at 1 µM (5-HT1A receptor) [%] | inhibition at 1 µM (5-HT2A receptor) [%] | inhibition in vivo at 10 mg/kg (male ICR mouse [1]; po) [%] | ED50 (male ICR mouse [1]; ip) [mg/kg] | ED50 (male ICR mouse [3]) [mg/kg]
1 | NC(=O)OC(CCN1CCN(c2ccccc2)CC1)c1ccccc1 (centres unmarked) [Example 1, Carbamic acid 1-phenyl-3-(4-phenyl-piperazin-1-yl)-propyl ester] | 6.31 | 434 | 139 | 8.43 |  |  |  |  | 
2 | NC(=O)OC(CCN1CCN(c2ccccc2)CC1)c1ccc(Cl)cc1 (centres unmarked) [Example 2, Carbamic acid 1-(4-chloro-phenyl)-3-(4-phenyl-piperazin-1-yl)-propyl ester] | 2.14 |  |  | 2.2 | 64.6 | 84.6 |  |  | 
3 | NC(=O)OC(CCN1CCN(c2ccccc2)CC1)c1ccc(F)cc1 (centres unmarked) [Example 6, Carbamic acid 1-(4-fluoro-phenyl)-3-(4-phenyl-piperazin-1-yl)-propyl ester] | 2.79 |  |  | 4.45 | 65.5 | 84.7 |  |  | 
4 | NC(=O)OC(CCN1CCN(c2ccccc2)CC1)c1ccc([N+](=O)[O-])cc1 (centres unmarked) [Example 9, Carbamic acid 1-(4-nitro-phenyl)-3-(4-phenyl-piperazin-1-yl)-propyl ester] |  |  |  | 2.39 | 81.4 | 88 | 91 |  | 
5 | NC(=O)OC(CCN1CCN(c2ccc([N+](=O)[O-])cc2)CC1)c1ccccc1 (centres unmarked) [Example 16, Carbamic acid 1-phenyl-3-[4-(4-nitro-phenyl)-piperazin-1-yl]-propyl ester] |  | 6570 | 2050 | 11.6 |  |  |  | 2.92 | 
6 | COc1ccc(N2CCN(CCC(OC(N)=O)c3ccccc3)CC2)cc1 (centres unmarked) [Example 20, Carbamic acid 3-[4-(4-methoxy-phenyl)-piperazin-1-yl]-1-phenyl-propyl ester] | 3.12 | 19800 | 5850 | 5.77 |  |  |  |  | 
7 | Cc1ccccc1N1CCN(CCC(OC(N)=O)c2ccccc2)CC1 (centres unmarked) [Example 37, Carbamic acid 1-phenyl-3-(4-o-tolylpiperazin-1-yl)-propyl ester] |  |  |  | 42.4 |  |  |  | 1.96 | 
8 | NC(=O)OC(CCN1CCN(c2ccccc2F)CC1)c1ccccc1 (centres unmarked) [Example 41, Carbamic acid 3-[4-(2-fluoro-phenyl)-piperazin-1-yl]-1-phenyl-propyl ester] |  | 160 | 110 | 33.2 |  |  |  | 0.34 | 
9 | NC(=O)OC(CCN1CCN(c2ccc(F)cc2)CC1)c1ccc(F)cc1 (centres unmarked) [Example 81, Carbamic acid 1-(4-fluoro-phenyl)-3-[4-(4-fluoro-phenyl)-piperazin-1-yl]-propyl ester] |  |  |  |  | 60.9 | 93.9 | 52 |  | 
10 | NC(=O)OC(CCCN1CCN(c2ccccc2)CC1)c1ccccc1 (centres unmarked) [Example 94, Carbamic acid 1-phenyl-4-(4-phenyl-piperazin-1-yl)-butyl ester] | 3.61 | 89.8 | 514 |  |  |  |  | 0.25 | 2.79
11 | COc1ccc(N2CCN(CC[C@@H](OC(N)=O)c3ccccc3)CC2)cc1 [Example 102, (R)-carbamic acid 3-[4-(4-methoxy-phenyl)-piperazin-1-yl]-1-phenyl-propyl ester] | 3.15 | 4310 | 2780 | 4.77 |  |  |  |  | 
12 | COc1ccc(N2CCN(CC[C@H](OC(N)=O)c3ccccc3)CC2)cc1 [Example 106, (S)-carbamic acid 3-[4-(4-methoxy-phenyl)-piperazin-1-yl]-1-phenyl-propyl ester] |  |  |  | 12.5 |  |  |  | 1.43 | 
